Data from US20080103049A1, “Benzoyl-Substituted Serineamides” (BSDG Aktiengesellschaft, priority 2004, published 2008).

Key:
Assay type in all cases: in vivo
[1] = tested on: Chenopodium album (lambsquarters); assay: greenhouse post-emergence herbicidal test, lambsquarters; conditions: for post-emergence action against lambsquarters: application rate 0.5 kg/ha a.s.; for post-emergence control of lambsquarters: application rate 1.0 kg/ha a.s.
Source text: (§1) The culture containers used were plastic flowerpots containing loamy sand with approximately 3.0% of humus as the substrate. The seeds of the test plants were sown separately for each species.
(§2) For the post-emergence treatment, the test plants were first grown to a height of 3 to 15 cm, depending on the plant habit, and only then treated with the active ingredients which had been suspended or emulsified in water. For this purpose, the test plants were either sown directly and grown in the same containers, or they were first grown separately as seedlings and transplanted into the test containers a few days prior to treatment. The rate of application for the post-emergence treatment was 1.0 or 0.5 kg/ha of a.s. (active substance).
(§3) Depending on the species, the plants were kept at 10-25° C. or 20-35° C. The test period extended over 2 to 4 weeks. During this time, the plants were tended, and their response to the individual treatments was evaluated.
(§4) Evaluation was carried out using a scale from 0 to 100. 100 means no emergence of the plants, or complete destruction of at least the aerial parts, and 0 means no damage, or normal course of growth.
(§5) The plants used in the greenhouse experiments belonged to the following species: […]

[2] = tested on: Setaria viridis (green foxtail); assay: greenhouse post-emergence herbicidal test, green foxtail; conditions: for post-emergence action against green foxtail: application rate 0.5 kg/ha a.s.; for post-emergence control of green foxtail: application rate 1.0 kg/ha a.s.
Source text: as §1, §2, §3, §4, §5

[3] = tested on: Amaranthus retroflexus (pig weed); assay: greenhouse post-emergence herbicidal test, pig weed; conditions: for post-emergence action against pig weed: application rate 0.5 kg/ha a.s.; for post-emergence control of pig weed: application rate 1.0 kg/ha a.s.
Source text: as §1, §2, §3, §4, §5

CNC(=O)C(NC(=O)c1ccc(F)cc1C(F)(F)F)C(OC(=O)N(C)C)c1cccs1 (mixture of isomers) [Compound 3.10]
very good: post-emergence action against lambsquarters [1] | post-emergence action against green foxtail [2] | post-emergence action against pig weed [3]

CNC(=O)C(NC(=O)c1ccc(F)cc1C(F)(F)F)C(OC(=O)N(C)C)c1ccsc1 (mixture of isomers) [Compound 3.11]
very good: post-emergence control of lambsquarters [1] | post-emergence control of green foxtail [2] | post-emergence control of pig weed [3]

CNC(=O)C(NC(=O)c1ccccc1C(F)(F)F)C(O)c1ccn(C)n1 (mixture of isomers) [Compound 3.14]
very good: post-emergence control of lambsquarters [1] | post-emergence control of green foxtail [2] | post-emergence control of pig weed [3]

CNC(=O)C(NC(=O)c1ccccc1C(F)(F)F)C(OC(=O)N(C)C)c1ccn(C)n1 (mixture of isomers) [Compound 3.20]
very good: post-emergence control of lambsquarters [1] | post-emergence control of green foxtail [2] | post-emergence control of pig weed [3]

CNC(=O)C(NC(=O)c1ccccc1C(F)(F)F)C(OC(=O)N(C)C)c1ccn(C)n1 (mixture of isomers) [Compound 3.21]
very good: post-emergence action against lambsquarters [1] | post-emergence action against green foxtail [2] | post-emergence action against pig weed [3]

CNC(=O)C(NC(=O)c1ccc(F)cc1C(F)(F)F)C(O)c1ccc(Cl)s1 (mixture of isomers) [Compound 3.28]
very good: post-emergence action against lambsquarters [1] | post-emergence action against green foxtail [2] | post-emergence action against pig weed [3]

CNC(=O)C(NC(=O)c1ccc(F)cc1C(F)(F)F)C(O)c1ccccn1 (mixture of isomers) [Compound 3.36]
very good: post-emergence action against lambsquarters [1] | post-emergence action against green foxtail [2] | post-emergence action against pig weed [3]

CNC(=O)C(NC(=O)c1ccc(F)cc1C(F)(F)F)C(O)c1cccnc1Cl (mixture of isomers) [Compound 3.39]
very good: post-emergence control of lambsquarters [1] | post-emergence control of green foxtail [2] | post-emergence control of pig weed [3]

CNC(=O)C(NC(=O)c1ccc(F)cc1C(F)(F)F)C(O)c1cccnc1Cl (mixture of isomers) [Compound 3.40]
very good: post-emergence control of lambsquarters [1] | post-emergence control of green foxtail [2] | post-emergence control of pig weed [3]

CNC(=O)C(NC(=O)c1ccc(F)cc1C(F)(F)F)C(O)c1ccc[n+]([O-])c1Cl (mixture of isomers) [Compound 3.41]
very good: post-emergence action against lambsquarters [1] | post-emergence action against green foxtail [2] | post-emergence action against pig weed [3]

CNC(=O)C(NC(=O)c1ccc(F)cc1C(F)(F)F)C(OC(C)=O)c1ccccn1 (mixture of isomers) [Compound 3.53]
very good: post-emergence action against lambsquarters [1] | post-emergence action against green foxtail [2] | post-emergence action against pig weed [3]

CNC(=O)C(NC(=O)c1ccc(F)cc1C(F)(F)F)C(OC(=O)N(C)C)c1ccc(Cl)s1 (mixture of isomers) [Compound 3.66]
very good: post-emergence action against lambsquarters [1] | post-emergence action against green foxtail [2] | post-emergence action against pig weed [3]

CNC(=O)C(NC(=O)c1ccc(F)cc1C(F)(F)F)C(OC(=O)N(C)C)c1ccccn1 (mixture of isomers) [Compound 3.69]
very good: post-emergence action against lambsquarters [1] | post-emergence action against green foxtail [2] | post-emergence action against pig weed [3]

CNC(=O)C(NC(=O)c1ccc(F)cc1C(F)(F)F)C(OC(C)=O)c1cccnc1Cl (racemic) [Compound 3.56]
very good: post-emergence action against lambsquarters [1] | post-emergence action against green foxtail [2] | post-emergence action against pig weed [3]

CNC(=O)C(NC(=O)c1ccc(F)cc1C(F)(F)F)C(OC(C)=O)c1cnccc1Cl (racemic) [Compound 3.57]
very good: post-emergence action against lambsquarters [1] | post-emergence action against green foxtail [2] | post-emergence action against pig weed [3]

CNC(=O)C(NC(=O)c1ccc(F)cc1C(F)(F)F)C(OC(C)=O)c1ccncc1Cl (racemic) [Compound 3.59]
very good: post-emergence action against lambsquarters [1] | post-emergence action against green foxtail [2] | post-emergence action against pig weed [3]

CNC(=O)C(NC(=O)c1ccc(F)cc1C(F)(F)F)C(OC(=O)N(C)C)c1cccnc1F (racemic) [Compound 3.71]
very good: post-emergence action against lambsquarters [1] | post-emergence action against green foxtail [2] | post-emergence action against pig weed [3]

CNC(=O)C(NC(=O)c1ccc(F)cc1C(F)(F)F)C(OC(=O)N(C)C)c1cnccc1Cl (racemic) [Compound 3.74]
very good: post-emergence action against lambsquarters [1] | post-emergence action against green foxtail [2] | post-emergence action against pig weed [3]

CNC(=O)C(NC(=O)c1ccc(F)cc1C(F)(F)F)C(OC(=O)N(C)C)c1ccc[n+]([O-])c1Cl (racemic) [Compound 3.75]
very good: post-emergence action against lambsquarters [1] | post-emergence action against green foxtail [2] | post-emergence action against pig weed [3]

CC[Si](CC)(CC)OC(c1ccsc1)C(NC(=O)c1ccc(F)cc1C(F)(F)F)C(=O)NC [Compound 3.13, (2S,3R)-threo-4-Fluoro-N-(1-methylcarbamoyl-2-thiophen-3-yl-2-triethylsilanyloxyethyl)-2-trifluoromethylbenzamide]
very good: post-emergence control of lambsquarters [1] | post-emergence control of green foxtail [2] | post-emergence control of pig weed [3]

CNC(=O)[C@@H](NC(=O)c1ccc(F)cc1C(F)(F)F)C(OC(=O)CSC)c1cccs1 (stereo partly drawn) [Compound 3.63]
very good: post-emergence action against lambsquarters [1] | post-emergence action against green foxtail [2] | post-emergence action against pig weed [3]

CNC(=O)[C@@H](NC(=O)c1ccc(F)cc1C(F)(F)F)C(OC(=O)N(C)C)c1cccs1 (stereo partly drawn) [Compound 3.65]
very good: post-emergence action against lambsquarters [1] | post-emergence action against green foxtail [2] | post-emergence action against pig weed [3]

CC[Si](CC)(CC)OC(c1ccc(Cl)s1)[C@H](NC(=O)c1ccc(F)cc1C(F)(F)F)C(=O)NC (stereo partly drawn) [Compound 3.79]
very good: post-emergence control of lambsquarters [1] | post-emergence control of green foxtail [2] | post-emergence control of pig weed [3]
